Results from patent US20250092065A1, “2-(INDAZOL-5-YL)-6-(PIPERIDIN-4-YL)-1,7-NAPHTHYRIDINE DERIVATIVES AND RELATED COMPOUNDS AS MODULATORS FOR SPLICING NUCLEIC ACIDS AND FOR THE TREATMENT OF PROLIFERATIVE DISEASES” (REMIX THERAPEUTICS INC., priority 2022, published 2025).

Assays:
MYB = assay: HiBiT protein abundance assay, MYB (K562 HiBiT knock-in); format: cell-based, human; conditions: HiBiT knock-in K562 cells, 24 hours, top dose 10 μM
How it was run: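 Steps: seed HiBiT knock-in K562 cells; add compound in 10-point 3-fold series from 10 μM final; incubate 24 h, 37 °C; add lytic HiBiT reagent, shake 5 min, wait 10 min; read luminescence. Normalize to parental K562 and DMSO controls, fit 4PL, take IC50.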

K562 cells = assay: Cell Titer Glo 2.0 cell viability (toxicity) assay, K562; conditions: 500 cells/well, 72 hours
Procedure: Compounds described herein were screened for toxicity in K562 (human chronic myelogenous leukemia) and SH-SY5Y (human neuroblastoma) cells using a Cell Titer Glo 2.0 assay.
Cells were plated at 500 cells/well (K562 cells) in 45 μL of IMDM supplemented with 10% FBS in a 384-well opaque plate. Wells containing only medium were used as a blank control. Test compounds (e.g., compounds of Formula (I) or (II)) were first serially diluted in DMSO then diluted 1:100 with EIDM+10% FBS. The final concentration of DMSO was 0.1% in each well. The cells were incubated for 72 hours at 37° C. and 5% CO2 before assaying with Cell Titer Glo 2.0 reagent.

SMN2 mRNA = assay: RT-qPCR splicing assay, SMN2 mRNA; format: cell-based, human; conditions: Homo sapiens, canonical junction qPCR panel, Table 4; read-out: SMN2 IC50 (decrease in CJ mRNA levels)
How it was run: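 Both isoforms, CJ and AJ, read by qPCR from crude lysates of treated A673 or K562 cells; 24 h, 37 °C, maximum 10 uM. Normalization: housekeeper ΔCt, then DMSO ΔΔCt.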

SMILES | IC50 (MYB) [nM] | IC50 (SMN2 mRNA) [nM] | Effect of Exemplary Compounds on Cell Viability, K562 (K562 cells)
Cc1nc2c(F)c(O)c(-c3ccc4nc(N5CCC(NC(C)C)C5)ccc4n3)cc2o1 (stereo not drawn) [Compound 328, 4-fluoro-6-{6-[3-(isopropylamino)pyrrolidin-1-yl]-1,5-naphthyridin-2-yl}-2-methyl-1,3-benzoxazol-5-ol] | < 100 | < 100 | A (A represents <100 nM)
CN[C@@H]1CCN(c2ccc3nc(-c4cc(F)c5nc(C)cn5c4)ncc3n2)C1 [Compound 331, (3R)-1-(2-{8-fluoro-2-methylimidazo[1,2-a]pyridin-6-yl}pyrido[3,2-d]pyrimidin-6-yl)-N-methylpyrrolidin-3-amine] | 100 to 1000 | < 100 | B (B represents 100-1000 nM)
CC(C)(C)NC1CCN(c2ccc3nc(-c4cc5oc(C6CC6)nc5cc4O)ccc3n2)C1 (stereo not drawn) [Compound 333, 6-{6-[3-(tert-butylamino)pyrrolidin-1-yl]-1,5-naphthyridin-2-yl}-2-cyclopropyl-1,3-benzoxazol-5-ol] | 100 to 1000 | 100 to 1000 | B (B represents 100-1000 nM)
Cc1nc2cc(O)c(-c3ccc4nc(N5CCC(NC(C)(C)C)C5)ccc4n3)cc2n1C (stereo not drawn) [Compound 339, 6-{6-[3-(tert-butylamino)pyrrolidin-1-yl]-1,5-naphthyridin-2-yl}-1,2-dimethyl-1,3-benzodiazol-5-ol] | 100 to 1000 | 100 to 1000 | B (B represents 100-1000 nM)
Cn1cc2cc(-c3ccc4nc(N5CCC(NC67CC(O)(C6)C7)C5)ccc4n3)c(O)cc2n1 (stereo not drawn) [Compound 341, 5-{6-[3-({3-hydroxybicyclo[1.1.1]pentan-1-yl}amino)pyrrolidin-1-yl]-1,5-naphthyridin-2-yl}-2-methylindazol-6-ol] | 100 to 1000 | < 100 | B (B represents 100-1000 nM)
Cc1cc2nc(-c3ccc4nc(N5CCC(NC(C)(C)C)C5)ccc4n3)cn2c(C)n1 (stereo not drawn) [Compound 344, N-tert-butyl-1-(6-{5,7-dimethylimidazo[1,2-c]pyrimidin-2-yl}-1,5-naphthyridin-2-yl)pyrrolidin-3-amine] | 1000 to 10000 | < 100 | D (D represents greater than 10 μM in K562 cells)
CCc1nc2cc(O)c(-c3ccc4nc(N5CCC(NC(C)(C)C)C5)ccc4n3)cc2o1 (stereo not drawn) [Compound 346, 6-{6-[3-(tert-butylamino)pyrrolidin-1-yl]-1,5-naphthyridin-2-yl}-2-ethyl-1,3-benzoxazol-5-ol] | 1000 to 10000 | 100 to 1000 | C (C represents 1000-9999 nM)

Further lines, with some results ahead:

IC50 (MYB) [nM] | IC50 (SMN2 mRNA) [nM] | SMILES | Effect of Exemplary Compounds on Cell Viability, K562 (K562 cells)
100 to 1000 | < 100 | CN[C@H]1CCN(c2ccc3nc(-c4cc(F)c5nc(C)cn5c4)ncc3n2)C1 [Compound 332, (S)-1-(2-(8-fluoro-2-methylimidazo[1,2-a]pyridin-6-yl)pyrido[3,2-d]pyrimidin-6-yl)-N-methylpyrrolidin-3-amine] | B (B represents 100-1000 nM)
100 to 1000 | 100 to 1000 | COCc1nc2cc(O)c(-c3ccc4nc(N5CCC(NC(C)(C)C)C5)ccc4n3)cc2o1 (stereo not drawn) [Compound 334, 6-{6-[3-(tert-butylamino)pyrrolidin-1-yl]-1,5-naphthyridin-2-yl}-2-(methoxymethyl)-1,3-benzoxazol-5-ol] | B (B represents 100-1000 nM)
1000 to 10000 | 1000 to 10000 | COc1cc2nc(C3COC3)oc2cc1-c1ccc2nc(N3CCC(NC(C)(C)C)C3)ccc2n1 (stereo not drawn) [Compound 335] | C (C represents 1000-9999 nM)
< 100 | < 100 | CC(C)(C)NC1CCN(c2ccc3nc(-c4cc5oc(CO)nc5cc4O)ccc3n2)C1 (stereo not drawn) [Compound 336, 6-{6-[3-(tert-butylamino)pyrrolidin-1-yl]-1,5-naphthyridin-2-yl}-2-(hydroxymethyl)-1,3-benzoxazol-5-ol] | A (A represents <100 nM)
< 100 | < 100 | CNC1CCN(c2ccc3nc(-c4cc5cn(C)nc5c(C)c4O)ncc3n2)C1 (stereo not drawn) [Compound 337, 2,7-dimethyl-5-{6-[3-(methylamino)pyrrolidin-1-yl]pyrido[3,2-d]pyrimidin-2-yl}indazol-6-ol] | A (A represents <100 nM)
< 100 | < 100 | Cc1c(O)c(-c2ncc3nc(N4CCNCC4)ccc3n2)cc2cn(C)nc12 [Compound 338, 2,7-dimethyl-5-[6-(piperazin-1-yl)pyrido[3,2-d]pyrimidin-2-yl]indazol-6-ol] | B (B represents 100-1000 nM)
100 to 1000 | 100 to 1000 | Cc1nc2cc(-c3ccc4nc(N5CCC(NC(C)(C)C)C5)ccc4n3)c(O)cc2n1C (stereo not drawn) [Compound 340, 6-{6-[3-(tert-butylamino)pyrrolidin-1-yl]-1,5-naphthyridin-2-yl}-2,3-dimethyl-1,3-benzodiazol-5-ol] | A (A represents <100 nM)
100 to 1000 | < 100 | Cc1c(O)c(-c2ncc3nc(N4CCC5(CCN5)C4)ccc3n2)cc2cn(C)nc12 (stereo not drawn) [Compound 342, 5-(6-{1,6-diazaspiro[3.4]octan-6-yl}pyrido[3,2-d]pyrimidin-2-yl)-2,7-dimethylindazol-6-ol] | B (B represents 100-1000 nM)
100 to 1000 | < 100 | Cc1nc2cc(O)c(-c3ccc4nc(N5CC[C@H](N[C@H]6C[C@H](F)C6)C5)ccc4n3)cc2o1 [Compound 350, 2-methyl-6-{6-[(3S)-3-{[(1r,3r)-3-fluorocyclobutyl]amino}pyrrolidin-1-yl]-1,5-naphthyridin-2-yl}-1,3-benzoxazol-5-ol] | B (B represents 100-1000 nM)
